Entries after “also recorded” stand apart in the source; their conditions may differ.
Legend:
SH-SY5Y cells [1] = test: Cell proliferation (anti-proliferation) assay, MTS; type: cell-based, human
Procedure: SH-SY5Y cells were grown in DMEM with L-glutamin supplemented with streptomycin ([…]), penicillin (100 units/mL), and 10% fetal bovine serum (FBS). Cells were grown to confluence in a humidified atmosphere (37 °C, 5% CO2).
SH-SY5Y cells (1.5 × 10^3 cells/well) were seeded in a clear 96-well plate, the medium volume was brought to 100 µL, and the cells were allowed to attach overnight. The next day, various concentrations of compounds or DMSO were added to the wells. Cells were then incubated at 37 °C for 24, 48 and 72 h. Cell viability was determined using the Promega Cell Titer 96 Aqueous One Solution cell proliferation assay. Absorbance at 490 nm was read on Tecan Infinite F200 Pro plate reader, and values were expressed as percent of absorbance from cells incubated in DMSO alone.

PAMPA-BBB assay = type: in vitro ADME
Procedure: BBB-PAMPA was conducted by manufacturer’s instruction (pION Inc, MA, USA). […] Transmembrane side to donor part was coated with BBB lipid solution and add 200 μL acceptor buffer in upper part of PAMPA sandwich plate.

Ac-Histone H3 = test: Western blot of acetylation status in SH-SY5Y cells; type: cell-based, human; conditions: 24 h, 0.5 to 5 μM
Procedure: (§1) Cells were seeded in 100 mm culture dishes (1 × 10^6 cells/dish), and allowed to attach overnight. Inhibitors were added at the concentrations as indicated and the cells were incubated for an additional 24 hours. For comparison, cells were also incubated with DMSO (0.5%) for 24 hours. Cells were harvested in ice-cold lysis buffer (23 mM Tris-HCl pH 7.6, 130 mM NaCl, 1% NP-40, 1% sodium deoxycholate, 0.1% SDS), and 30 µg of lysate per lane was separated by SDS-PAGE and followed by transferring to a PVDF membrane (Bio-Rad). The membrane was blocked with 5% skim milk in TBST, and then incubated with the corresponding antibody (Ac-α-tubulin, α-tubulin, Ac-Histone H3, Histone H3 or β-actin). After binding of an appropriate secondary antibody coupled to horseradish peroxidase, proteins were visualized by ECL chemiluminescence according to the instructions of the manufacturer (GE healthcare, USA).

Ac-α-tubulin = test: as above; type: cell-based, human; conditions: 24 h, 0.5 to 5 μM
Procedure: as §1

HDAC7 = target: T1, HDAC7 (Homo sapiens, UniProt Q8WUI4); test: HDAC activity assay (fluorimetric, BPS Biosciences); type: biochemical; conditions: class IIa in Table 4; mean ± SD (n = 2)
T1 construct: purchased BPS Biosciences
T1 sequence (Q8WUI4 1-952): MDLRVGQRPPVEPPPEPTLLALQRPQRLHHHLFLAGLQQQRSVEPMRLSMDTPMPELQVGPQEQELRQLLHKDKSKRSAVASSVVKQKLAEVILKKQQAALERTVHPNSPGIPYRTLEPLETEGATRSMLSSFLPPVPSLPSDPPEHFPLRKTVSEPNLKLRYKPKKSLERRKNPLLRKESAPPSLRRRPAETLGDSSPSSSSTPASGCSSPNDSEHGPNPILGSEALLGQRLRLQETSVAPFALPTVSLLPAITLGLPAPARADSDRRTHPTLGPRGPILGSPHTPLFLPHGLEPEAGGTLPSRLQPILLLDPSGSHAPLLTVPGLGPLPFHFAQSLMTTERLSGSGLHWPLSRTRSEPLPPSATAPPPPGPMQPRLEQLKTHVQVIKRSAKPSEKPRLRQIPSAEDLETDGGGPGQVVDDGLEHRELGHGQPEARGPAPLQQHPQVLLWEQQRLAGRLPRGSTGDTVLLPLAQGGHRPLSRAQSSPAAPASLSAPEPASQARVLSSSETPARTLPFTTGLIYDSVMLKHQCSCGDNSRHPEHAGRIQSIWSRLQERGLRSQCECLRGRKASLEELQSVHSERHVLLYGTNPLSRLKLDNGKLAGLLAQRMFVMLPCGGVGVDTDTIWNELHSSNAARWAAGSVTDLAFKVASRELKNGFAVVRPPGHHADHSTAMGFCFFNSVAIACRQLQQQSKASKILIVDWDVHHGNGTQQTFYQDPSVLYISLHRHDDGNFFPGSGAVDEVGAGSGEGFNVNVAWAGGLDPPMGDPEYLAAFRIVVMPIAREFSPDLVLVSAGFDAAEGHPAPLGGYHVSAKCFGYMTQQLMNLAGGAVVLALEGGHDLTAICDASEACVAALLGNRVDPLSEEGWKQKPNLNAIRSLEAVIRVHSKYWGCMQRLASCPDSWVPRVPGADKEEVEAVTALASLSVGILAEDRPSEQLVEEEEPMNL
Procedure: (§2) HDAC1, 3, 6 and 7 activity assays were performed according to the manufacturer’s protocol (BPS Biosciences). […] The HDAC assay developer was added to the mixture and incubated the plate at rt for 15 min. The fluorescence intensity was measured using a Tecan Infinite F200 Pro plate reader.

HDAC1 = target: T2, HDAC1 (Homo sapiens, UniProt Q13547); test: as above; type: biochemical; conditions: class I; mean ± SD (n = 2)
T2 construct: purchased BPS Biosciences
Procedure: as §2

HDAC3 = target: T3, HDAC3 (Homo sapiens, UniProt O15379); test: as above; type: biochemical; conditions: class I; mean ± SD (n = 2)
T3 construct: purchased BPS Biosciences
Procedure: as §2

SH-SY5Y cells [2] = test: Soft agar colony formation assay; type: cell-based, human; conditions: 3 weeks, 3 μM
Procedure: Cells (10^4 cells/well) were seeded in 6 well plate with 1.2% agar. After 12 h incubation, cells were treated with the indicated concentrations of compound 9b or DMSO at 37 °C in 5% humidified CO2 for 3 weeks with continuously changing medium every week. After medium was thrown away, colonies were stained with 0.05% crystal violet for 10 min.

T3 sequence (O15379 whole entry): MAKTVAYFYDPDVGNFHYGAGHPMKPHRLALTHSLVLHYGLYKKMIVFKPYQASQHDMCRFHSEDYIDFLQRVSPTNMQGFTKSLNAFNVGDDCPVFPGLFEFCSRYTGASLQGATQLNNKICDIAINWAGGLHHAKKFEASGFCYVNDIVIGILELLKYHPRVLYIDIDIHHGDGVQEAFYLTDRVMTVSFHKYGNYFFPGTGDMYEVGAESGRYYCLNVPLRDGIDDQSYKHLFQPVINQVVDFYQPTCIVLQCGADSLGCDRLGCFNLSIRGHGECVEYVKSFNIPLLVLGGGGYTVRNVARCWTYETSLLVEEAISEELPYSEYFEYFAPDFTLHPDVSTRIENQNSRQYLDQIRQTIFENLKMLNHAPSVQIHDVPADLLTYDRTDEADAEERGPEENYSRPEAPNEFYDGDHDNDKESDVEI
T3 sequence (Q9Y618 395-489 partner limits assumed): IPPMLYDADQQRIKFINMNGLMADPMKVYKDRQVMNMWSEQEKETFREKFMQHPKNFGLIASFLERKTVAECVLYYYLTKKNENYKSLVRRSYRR
T2 sequence (Q13547 whole entry): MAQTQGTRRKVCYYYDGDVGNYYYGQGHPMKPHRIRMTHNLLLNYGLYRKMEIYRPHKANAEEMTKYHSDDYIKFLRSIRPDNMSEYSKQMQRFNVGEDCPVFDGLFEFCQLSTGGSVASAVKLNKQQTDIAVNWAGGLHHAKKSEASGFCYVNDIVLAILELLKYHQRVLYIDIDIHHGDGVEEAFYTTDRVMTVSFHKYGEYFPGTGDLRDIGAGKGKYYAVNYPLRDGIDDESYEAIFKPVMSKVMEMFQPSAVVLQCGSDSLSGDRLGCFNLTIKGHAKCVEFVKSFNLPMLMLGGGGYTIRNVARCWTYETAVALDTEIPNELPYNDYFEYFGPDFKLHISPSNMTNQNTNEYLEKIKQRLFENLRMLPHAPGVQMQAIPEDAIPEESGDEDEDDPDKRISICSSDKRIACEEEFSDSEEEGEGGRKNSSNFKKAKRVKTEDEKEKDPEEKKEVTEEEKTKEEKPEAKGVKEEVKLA

O=C(NO)c1ccc(-c2nc3ccccc3s2)cc1 [Compound 9b]
SH-SY5Y cell growth impaired (SH-SY5Y cells [1]; 5 μM, 72 hours): ~73% | GI50 (SH-SY5Y cells [1]; Homo sapiens, SH-SY5Y neuroblastoma cell line, 72 h, mean ± SD (n = 4)): 2.01 ± 0.33 µM | IC50 (SH-SY5Y cells [1]; Homo sapiens, SH-SY5Y, Table 1 values IC50, read-out: anti-proliferative activity IC50 against SH-SY5Y cell line): 2.01 µM | Pe (10^−6 cm/s) (PAMPA-BBB assay; 25 μM, pH 7.4, 4 h, 25 °C, mean ± SD, three independent experiments): 27.15 10^−6 cm/s | CNS +/− classification (PAMPA-BBB assay; PAMPA-BBB): CNS + (CNS + indicates (Pe > 10)) | Papp at 4 h, 25 μM (PAMPA-BBB assay; PAMPA, 25 μM, pH 7.4, 4 h, 25 °C, mean ± SD, three independent experiments, read-out: Pe): 272 ± 15.9 nm/s | acetylation status of Histone H3 (Ac-Histone H3): more efficiently promoted the acetylation of Histone H3 and α-tubulin than compound 9a; also recorded: significantly induced the accumulation of acetylated Histone H3 | acetylation status of α-tubulin (Ac-α-tubulin): more efficiently promoted the acetylation of Histone H3 and α-tubulin than compound 9a; also recorded: dose-dependently increased | IC50 (HDAC7): 3.04 µM | IC50 (HDAC1): 0.0849 ± 0.0251 µM | IC50 (HDAC3): 0.142 ± 0.0457 µM | anchorage-independent cell growth (colony formation) (SH-SY5Y cells [2]): almost completely inhibited

— publication PMC6742641, “Design, synthesis and biological evaluation of a series of CNS penetrant HDAC inhibitors structurally derived from amyloid-β probes” (Scientific Reports, 2019)
